From patent US11179389B2, “Purine inhibitors of human phosphatidylinositol 3-kinase delta” (Merck Sharp & Dohme Corp., priority 2017, dated 2021)

Key:
PI3Kalpha = PI3Kalpha (Homo sapiens (Human), UniProt P42336); assay: HTRF PI3K biochemical assay, alpha isoform (for selectivity ratio); details: ratio PI3K-alpha IC50 value / PI3K-delta IC50 value
Excerpt: (§1) HTRF PI3K Biochemical Assay to Measure Intrinsic Potency of Compound Inhibitors
(§2) The PI3-Kinase biochemical assays were developed to measure the intrinsic potency and compound dependent inhibition of the alpha, beta, delta, and gamma PI3K isoform enzymes. This assay was developed and further optimized from a kit produced by Upstate (Millipore catalog #33-047) (Millipore Sigma. Billerica Mass., USA) and has been configured for high throughput screening (HTS) and structure-activity relationship (SAR) screening. Briefly, this procedure exploits the exquisite specificity and high affinity binding of enzyme reaction […] phosphatidyl(3,4,5)triphosphate (PIP3) to the GRP1 pleckstrin homology (PH) domain to generate the signal. In the absence of PIP3, an HTRF (Homogeneous Time-Resolved Fluorescence energy transfer) complex is formed consisting of europium (Eu)-labeled anti-GST, GSTtagged GRP1-PH domain, biotin-PIP3 (biotinylated-PIP3) and streptavidin conjugated APC (Allophycocyanin). The native PIP3 produced by PI3-Kinase activity disrupts in a competitive manner the biotin-PIP3 from the pleckstrin homology (PH) domain, resulting in the loss of energy transfer (HTRF complex) and a decrease in the signal. The format of this assay is the same for all 4 isoforms of PI3K; the differences lie in the concentration of enzyme used to achieve robust assay window. The alpha, beta, and delta assays are run at 0.5, 1, and 0.3 nM enzymes and the gamma assay is run at 5 nM enzyme. The ATP concentration is 100 uM in the alpha, beta, and delta assays and 50 uM adenosine triphosphate (ATP) in the gamma assay. All reactions are run at 5 uM PIP2.
(§3) Compounds are serially diluted (3-fold in 100% DMSO) across a 384-well polypropylene source plated from column 3 to column 12 and column 13 to column 22, to yield 10 concentration dose response for each test compound. Columns 1, 2, 23 and 24 contain either only DMSO or pharmacological known control inhibitor. Once titrations are made, 2.5 nL of the compounds on 384 well plates are reformatted and transferred by acoustic dispense in quadruplicates to a 1536 assay plate (Greiner) to assay across all four PI3K isoform enzymes.
(§4) The PI3-Kinase biochemical assay was optimized using the HTRF kit provided by Upstate (Millipore). The assay kit contains six reagents: 1) 4×Reaction Buffer; 2) native PIP2 (substrate); 3) Stop (EDTA); 4) Detection Mix A (Streptavidin-APC); 5) Detection Mix B (Eu-labeled Anti-GST plus GST-tagged PH-domain): 6) Detection Mix C. In addition, the following items were obtained or purchased; PI3Kinase (catalog #'s alpha 14-602, beta 14-603, gamma 14-558 and delta 14-604 from Upstate Biotechnology now EMD Millipore, Mahopac, N.Y., USA), dithiothreitol (Sigma-Aldrich Corp. (St. Louis, Mo., USA) Catalog #D-5545), Adenosine-5′ triphosphate (InVitrogen (Waltham, Mass., USA), Cat#AS001 Å), native PIP3 (PI(3,4,5)P3, diC8, H^+, CELLSIGNALS, INC., (Columbus, Ohio, USA) Cat #907) DMSO ((Sigma-Aldrich Corp. (St. Louis. Mo., USA) Catalog #472301).
(§5) PI3Kinase Reaction Buffer is prepared by dilution the stock 1:4 with de-ionized water. DTT (DL-Dithiothreitol), phosphatidylinositol 4,5-bisphosphate (PIP2) and Biotin-PIP3 were added to 1536 assay plate at a final concentration of 5 mM, […] and 25 nM on the day of use. Enzyme addition and compound pre-incubation are initiated by the addition of 1.25 ul of PI3K (at twice its final concentration) in the 1× reaction buffer to all wells using a BioRaptor™. Plates are incubated at room temperature for 15 minutes. Reactions are initiated by addition of 1.25 ul of 2× substrate solution (PIP2 and ATP in 1× reaction buffer) using BioRaptor™. Plates are incubated in humidified chamber at room temperature for one hour. Reactions are quenched by addition of 0.625 uL of stop solution to all wells using the BioRaptor™. […]

PI3Kdelta = PI3Kdelta (Homo sapiens (Human), UniProt O00329); assay: HTRF PI3K biochemical assay, delta isoform; details: 0.3 nM enzyme, 100 uM ATP, 5 uM PIP2, form screened per table (Neutral or TFA salt)
Chain of PI3Kdelta (O00329 whole entry, canonical isoform): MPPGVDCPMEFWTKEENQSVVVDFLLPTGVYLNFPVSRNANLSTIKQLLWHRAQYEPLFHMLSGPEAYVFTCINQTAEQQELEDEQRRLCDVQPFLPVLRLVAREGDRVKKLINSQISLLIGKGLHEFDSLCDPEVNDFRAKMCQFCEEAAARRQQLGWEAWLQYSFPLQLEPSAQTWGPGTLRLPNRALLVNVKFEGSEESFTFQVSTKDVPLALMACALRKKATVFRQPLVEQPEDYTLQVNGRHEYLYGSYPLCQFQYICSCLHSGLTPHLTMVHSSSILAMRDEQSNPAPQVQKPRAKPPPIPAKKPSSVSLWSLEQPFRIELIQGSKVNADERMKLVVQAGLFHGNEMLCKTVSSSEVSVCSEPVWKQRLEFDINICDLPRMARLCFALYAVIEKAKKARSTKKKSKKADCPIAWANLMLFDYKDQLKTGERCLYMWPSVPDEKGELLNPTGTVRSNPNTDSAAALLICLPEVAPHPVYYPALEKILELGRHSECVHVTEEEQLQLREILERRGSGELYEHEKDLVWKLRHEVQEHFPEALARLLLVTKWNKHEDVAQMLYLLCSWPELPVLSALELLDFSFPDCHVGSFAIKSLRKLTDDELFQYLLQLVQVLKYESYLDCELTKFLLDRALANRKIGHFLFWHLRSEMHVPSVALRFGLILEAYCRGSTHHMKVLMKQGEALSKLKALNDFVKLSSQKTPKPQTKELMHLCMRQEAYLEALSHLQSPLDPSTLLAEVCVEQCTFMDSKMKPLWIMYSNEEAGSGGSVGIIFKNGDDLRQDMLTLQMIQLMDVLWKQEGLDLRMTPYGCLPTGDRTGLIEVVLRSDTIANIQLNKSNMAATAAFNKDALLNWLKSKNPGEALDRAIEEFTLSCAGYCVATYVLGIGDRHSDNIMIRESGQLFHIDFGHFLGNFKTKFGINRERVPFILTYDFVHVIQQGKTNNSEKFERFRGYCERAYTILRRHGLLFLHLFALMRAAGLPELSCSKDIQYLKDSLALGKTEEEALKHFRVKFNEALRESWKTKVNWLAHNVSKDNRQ
Chain of PI3Kdelta (P27986 whole entry partner, canonical isoform): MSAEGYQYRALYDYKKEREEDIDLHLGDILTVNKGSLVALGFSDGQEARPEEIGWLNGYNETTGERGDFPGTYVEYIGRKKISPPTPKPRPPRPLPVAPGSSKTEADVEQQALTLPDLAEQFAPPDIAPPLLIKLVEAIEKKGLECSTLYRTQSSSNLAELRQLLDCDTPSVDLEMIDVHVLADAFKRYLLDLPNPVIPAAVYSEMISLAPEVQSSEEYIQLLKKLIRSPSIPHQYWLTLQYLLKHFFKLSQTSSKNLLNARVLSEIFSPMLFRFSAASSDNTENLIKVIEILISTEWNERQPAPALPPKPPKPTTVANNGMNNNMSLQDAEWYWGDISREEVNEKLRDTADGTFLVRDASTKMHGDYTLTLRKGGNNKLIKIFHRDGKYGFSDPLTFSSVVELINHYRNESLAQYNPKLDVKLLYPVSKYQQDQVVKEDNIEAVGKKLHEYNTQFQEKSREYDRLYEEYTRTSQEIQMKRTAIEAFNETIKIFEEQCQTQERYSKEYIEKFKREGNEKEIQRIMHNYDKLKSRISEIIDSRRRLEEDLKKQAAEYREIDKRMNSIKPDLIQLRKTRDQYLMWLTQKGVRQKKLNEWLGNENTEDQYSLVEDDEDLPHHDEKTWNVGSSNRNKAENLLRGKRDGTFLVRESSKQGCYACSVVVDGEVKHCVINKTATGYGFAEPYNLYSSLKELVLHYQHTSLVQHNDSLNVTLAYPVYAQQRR
Excerpt: as §1, §2, §3, §4, §5

Chain of PI3Kalpha (P42336 whole entry, canonical isoform): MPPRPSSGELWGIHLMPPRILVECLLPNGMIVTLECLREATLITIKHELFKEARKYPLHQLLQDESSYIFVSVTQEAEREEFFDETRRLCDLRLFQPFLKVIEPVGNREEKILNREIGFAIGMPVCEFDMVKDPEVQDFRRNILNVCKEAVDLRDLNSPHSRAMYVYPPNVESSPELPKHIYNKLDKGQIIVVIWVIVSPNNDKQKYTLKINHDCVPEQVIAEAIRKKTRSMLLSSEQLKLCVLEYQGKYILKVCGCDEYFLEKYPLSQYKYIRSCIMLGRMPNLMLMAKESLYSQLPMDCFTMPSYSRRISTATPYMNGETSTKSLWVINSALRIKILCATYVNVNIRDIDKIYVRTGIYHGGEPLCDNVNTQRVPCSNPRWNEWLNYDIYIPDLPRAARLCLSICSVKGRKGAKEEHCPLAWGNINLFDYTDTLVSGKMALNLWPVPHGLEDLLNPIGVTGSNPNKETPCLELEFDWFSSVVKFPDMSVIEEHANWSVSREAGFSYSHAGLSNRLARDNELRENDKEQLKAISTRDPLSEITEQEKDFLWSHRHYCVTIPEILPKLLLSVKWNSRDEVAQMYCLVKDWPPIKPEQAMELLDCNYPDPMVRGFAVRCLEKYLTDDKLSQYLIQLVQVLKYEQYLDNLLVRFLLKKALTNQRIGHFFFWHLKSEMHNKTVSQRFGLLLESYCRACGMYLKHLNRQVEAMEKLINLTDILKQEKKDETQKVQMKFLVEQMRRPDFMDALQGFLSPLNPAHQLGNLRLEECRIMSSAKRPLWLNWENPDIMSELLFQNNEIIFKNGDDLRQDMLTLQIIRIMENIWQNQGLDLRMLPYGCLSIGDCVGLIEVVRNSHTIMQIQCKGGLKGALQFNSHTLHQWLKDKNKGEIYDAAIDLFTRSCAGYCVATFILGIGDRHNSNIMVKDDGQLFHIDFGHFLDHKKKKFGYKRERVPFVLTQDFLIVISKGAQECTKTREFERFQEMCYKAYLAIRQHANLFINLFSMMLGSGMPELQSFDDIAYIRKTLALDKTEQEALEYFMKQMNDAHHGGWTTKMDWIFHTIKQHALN
Chain of PI3Kalpha (P27986 whole entry partner, canonical isoform): as the sequence (P27986 whole entry partner, canonical isoform) above

Selectivity versus PI3Kalpha (PI3Kalpha) | IC50 (PI3Kdelta) [nM] | Structure (SMILES)
>10 | 100 | CO[C@H]1C[C@@H](C(=O)N2CCN(c3cnc(C#N)c(-c4cnn(C)c4)n3)C[C@H]2C)C1 [Compound 1-27, 5-{(3R)-4-[(cis-3-methoxycyclobutyl)carbonyl]-3-methylpiperazin-1-yl}-3-(1-methyl-1H-pyrazol-4-yl)pyrazine-2-carbonitrile]
>10 | 29 | C[C@@H]1CN(c2cnc(C#N)c(-c3cnn(C)c3)n2)CCN1C(=O)[C@@H]1C[C@@H]1F [Compound 1-29, 5-[(3R)-4-{[(1S,2S)-2-fluorocyclopropyl]carbonyl}-3-methylpiperazin-1-yl]-3-(1-methyl-1H-pyrazol-4-yl)pyrazine-2-carbonitrile]
>10 | 150 | CCC(=O)N1CCN(c2cnc(C#N)c(-c3cnn(C)c3)n2)C[C@H]1C [Compound 1-30, 5-[(3R)-3-methyl-4-propanoylpiperazin-1-yl]-3-(1-methyl-1H-pyrazol-4-yl)pyrazine-2-carbonitrile]
>10 | 280 | C[C@@H]1CN(c2cnc(C#N)c(-c3cnn(C)c3)n2)CCN1C(=O)C1(C)CC1 [Compound 1-31, 5-{(3R)-3-methyl-4-[(1-methylcyclopropyl)carbonyl]piperazin-1-yl}-3-(1-methyl-1H-pyrazol-4-yl)pyrazine-2-carbonitrile]
>10 | 210 | C[C@@H]1CN(c2cnc(C#N)c(-c3cnn(C)c3)n2)CCN1C(=O)NCC1CC1 [Compound 1-34, (2R)-4-[5-cyano-6-(1-methyl-1H-pyrazol-4-yl)pyrazin-2-yl]-N-(cyclopropylmethyl)-2-methylpiperazine-1-carboxamide]
>10 | 160 | COC1CN(C(=O)N2CCN(c3cnc(C#N)c(-c4cnn(C)c4)n3)C[C@H]2C)C1 [Compound 1-36, 5-{(3R)-4-[(3-methoxyazetidin-1-yl)carbonyl]-3-methylpiperazin-1-yl}-3-(1-methyl-1H-pyrazol-4-yl)pyrazine-2-carbonitrile]
>10 | 53 | C[C@@H]1CN(c2cnc(C#N)c(-c3cnn(C)c3)n2)CCN1C(=O)N1CCC1 [Compound 1-37, 5-[(3R)-4-(azetidin-1-ylcarbonyl)-3-methylpiperazin-1-yl]-3-(1-methyl-1H-pyrazol-4-yl)pyrazine-2-carbonitrile]
>10 | 210 | COC(=O)N1CCN(c2cnc(C#N)c(-c3cnn(C)c3)n2)C[C@H]1C [Compound 1-38, methyl (2R)-4-[5-cyano-6-(1-methyl-1H-pyrazol-4-yl)pyrazin-2-yl]-2-methylpiperazine-1-carboxylate]

Continued, compound first:

Structure (SMILES) | Selectivity versus PI3Kalpha (PI3Kalpha) | IC50 (PI3Kdelta) [nM]
Cn1cc(-c2nc(N3CCC4(CCC(=O)N4CC(F)(F)F)CC3)cnc2C#N)cn1 [Compound 1-21, 3-(1-methyl-1H-pyrazol-4-yl)-5-[2-oxo-1-(2,2,2-trifluoroethyl)-1,8-diazaspiro[4.5]dec-8-yl]pyrazine-2-carbonitrile] | >10 | 37
CCCN1C(=O)OCC12CCN(c1cnc(C#N)c(-c3cnn(C)c3)n1)CC2 [Compound 1-22, 3-(1-methyl-1H-pyrazol-4-yl)-5-(2-oxo-1-propyl-3-oxa-1,8-diazaspiro[4.5]dec-8-yl)pyrazine-2-carbonitrile] | >10 | 30
Cn1cc(-c2nc(N3CCC4(CC3)COC(=O)N4CC3CCC3)cnc2C#N)cn1 [Compound 1-23, 5-[1-(cyclobutylmethyl)-2-oxo-3-oxa-1,8-diazaspiro[4.5]dec-8-yl]-3-(1-methyl-1H-pyrazol-4-yl)pyrazine-2-carbonitrile] | >10 | 18
Cn1cc(-c2nc(N3CCC4(CC3)COCC(=O)N4CC3CC3)cnc2C#N)cn1 [Compound 1-24, 5-[1-(cyclopropylmethyl)-2-oxo-4-oxa-1,9-diazaspiro[5.5]undec-9-yl]-3-(1-methyl-1H-pyrazol-4-yl)pyrazine-2-carbonitrile] | >10 | 10
Cn1cc(-c2nc(N3CCC(C)(N4CCOCC4)CC3)cnc2C#N)cn1 [Compound 1-25, 5-(4-methyl-4-morpholin-4-ylpiperidin-1-yl)-3-(1-methyl-1H-pyrazol-4-yl)pyrazine-2-carbonitrile] | >10 | 52
Cn1cc(-c2nc(N3CCC(C)(N4CCCCC4)CC3)cnc2C#N)cn1 [Compound 1-26, 5-(4′-methyl-1,4′-bipiperidin-1′-yl)-3-(1-methyl-1H-pyrazol-4-yl)pyrazine-2-carbonitrile] | >10 | 70
C[C@@H]1CN(c2cnc(C#N)c(-c3cnn(C)c3)n2)CCN1C(=O)C1CC(F)(F)C1 [Compound 1-28, 5-{(3R)-4-[(3,3-difluorocyclobutyl)carbonyl]-3-methylpiperazin-1-yl}-3-(1-methyl-1H-pyrazol-4-yl)pyrazine-2-carbonitrile] | >10 | 100
C[C@@H]1CN(c2cnc(C#N)c(-c3cnn(C)c3)n2)CCN1C(=O)N1CCCC1 [Compound 1-32, 3-(1-methyl-1H-pyrazol-4-yl)-5-[(3R)-3-methyl-4-(pyrrolidin-1-ylcarbonyl)piperazin-1-yl]pyrazine-2-carbonitrile] | >10 | 180
C[C@@H]1CN(c2cnc(C#N)c(-c3cnn(C)c3)n2)CCN1C(=O)N1CC2(COC2)C1 [Compound 1-33, 5-[(3R)-3-methyl-4-(2-oxa-6-azaspiro[3.3]hept-6-ylcarbonyl)piperazin-1-yl]-3-(1-methyl-1H-pyrazol-4-yl)pyrazine-2-carbonitrile] | >10 | 300
CO[C@H]1CCN(C(=O)N2CCN(c3cnc(C#N)c(-c4cnn(C)c4)n3)C[C@H]2C)C1 [Compound 1-35, 5-[(3R)-4-{[(3S)-3-methoxypyrrolidin-1-yl]carbonyl}-3-methylpiperazin-1-yl]-3-(1-methyl-1H-pyrazol-4-yl)pyrazine-2-carbonitrile] | >10 | 110
C[C@@H]1C[C@H]1C(=O)N1CCN(c2cnc(C#N)c(-c3cn[nH]c3)n2)C[C@H]1C [Compound 1-39, 5-[(3R)-3-methyl-4-{[(1R,2R)-2-methylcyclopropyl]carbonyl}piperazin-1-yl]-3-(1H-pyrazol-4-yl)pyrazine-2-carbonitrile] | >10 | 50
